Results published in patent US6368632B1, “Microencapsulated 3-piperidinyl-substituted 1,2-benzisoxazoles and 1,2-benzisothiazoles” (Janssen Pharmaceutica, priority 1993, dated 2002).

Key:
[1] = Solubility in the real time in vitro dissolution receiving medium; details: 50 mM tris buffer, 37 °C, pH 7.4, aqueous buffer
dopamine-D2 = dopamine-D2 (Homo sapiens, UniProt P14416); details: Janssen et al., J. Pharmacol. Exp. Ther. 244 (2):685-693 (1988); cited from earlier work
Chain of dopamine-D2 (P14416 whole entry): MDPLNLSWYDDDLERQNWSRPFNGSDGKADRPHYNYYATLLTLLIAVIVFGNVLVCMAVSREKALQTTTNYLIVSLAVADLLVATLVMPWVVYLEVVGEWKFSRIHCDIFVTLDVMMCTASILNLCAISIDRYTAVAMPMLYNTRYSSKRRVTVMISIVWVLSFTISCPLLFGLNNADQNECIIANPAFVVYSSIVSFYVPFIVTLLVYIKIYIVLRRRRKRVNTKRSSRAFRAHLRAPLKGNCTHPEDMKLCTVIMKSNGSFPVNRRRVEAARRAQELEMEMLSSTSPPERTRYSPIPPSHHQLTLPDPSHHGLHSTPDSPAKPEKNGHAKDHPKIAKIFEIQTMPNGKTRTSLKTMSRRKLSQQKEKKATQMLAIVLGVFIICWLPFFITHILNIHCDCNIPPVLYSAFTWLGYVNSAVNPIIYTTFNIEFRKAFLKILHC

**Q.** Which solubility [1] does the source give for `Cc1nc2n(c(=O)c1CCN1CCC(c3noc4cc(F)ccc34)CC1)CCCC2` [Risperidone, 3-[2-[4-(6-fluoro-1,2-benzisoxazol-3-yl)-1-piperidinyl)ethyl]-6,7,8,9-tetrahydro-2-methyl-4H -pyrido[1,2-a]pyrimidin-4-one] here?
**A.** Its solubility is no less than 0.5 mg/mL.

**Q.** And the “activity in tests related to dopamine-D2 antagonism” value (dopamine-D2)?
**A.** Its value is “showed activity in all tests related to dopamine-D2 antagonism”.
